These results are taken from patent US4722922A, “Tetrapeptide amides in the treatment of hypertension” (priority 1985, dated 1988).

As a reminder, the % Inhibition is the change of the read-out against control, counted positive when it falls. Lower therefore signals a weak effect.

One assay has as its target T1, human renin (Homo sapiens, UniProt P00797).
T1 construct: human renin, isolated from kidneys, was obtained from the World Health Organization International Laboratory for Biological Standards; tissue World Health Organization International Laboratory for Biological Standards (National Institute for Biological Standards and Control, London, England); host or cells: human kidney
T1 sequence (P00797 67-406): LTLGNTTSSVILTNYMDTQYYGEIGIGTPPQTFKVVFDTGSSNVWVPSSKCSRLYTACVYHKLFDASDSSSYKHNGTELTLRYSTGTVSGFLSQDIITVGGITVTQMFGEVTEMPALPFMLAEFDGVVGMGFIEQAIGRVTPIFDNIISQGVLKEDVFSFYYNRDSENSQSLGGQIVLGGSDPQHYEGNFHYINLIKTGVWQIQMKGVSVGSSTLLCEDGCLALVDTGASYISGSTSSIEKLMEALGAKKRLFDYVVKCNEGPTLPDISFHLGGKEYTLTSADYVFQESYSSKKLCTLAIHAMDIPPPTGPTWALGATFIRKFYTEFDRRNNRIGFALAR
Kind of assay: Inhibition of Human Renin (angiotensin I formation, radioimmunoassay). Particulars: for % Inhibition: human renin test, 0.1 mGU/ml human renin, human plasma, two-hour incubation at 37° C., pH 7.5, test compound concentration not given. It is filed as biochemical. The procedure: The renin inhibition activity of the compounds of this invention illustrated in the examples was tested by the following method.
Inhibition of Human Renin
International reference standard human renin, isolated from kidneys, was obtained from the World Health Organization International Laboratory for Biological Standards (National Institute for Biological Standards and Control, London, England). Renin activity is defined in "Goldblatt units" (GU), the quantity that, when injected directly into the blood stream of an unanesthetized dog, raises the direct mean femoral artery blood pressure by 30 mm Hg in about two minutes. E. Haas, L. Lewis, P. Scipione, and T. J. Koshy, Hypertension, 1, 112-117 (1979). Human angiotensinogen was used as an unisolated component of human blood plasma. The enzyme inhibition assay, see K. Poulsen, J. Burton, and E. Haber, Biochemistry, 12, 3877-3882 (1973), involved a two-hour incubation at 37° C. of the following final concentrations of reagents (0.25 ml total volume): 0.1 mGU/ml human renin; 0.05 ml human plasma; 6 mM disodium EDTA; 2.4 mM phenylmethylsulfonyl fluoride and 1.5 mM 8-hydroxyquinoline (angiotensinase inhibitors); 0.4 mg/ml bovine serum albumin; and 0.024 neomycin sulfate in 100 mM Tris-acetate buffer (pH 7.5). The enzymatic reaction was terminated by boiling the mixture for ten minutes. The quantity of angiotensin I formed was determined by radioimmunoassay, using the general method used in the angiotensin I radioimmunoassay kit of New England Nuclear.

Assay [1] has as its system renal-ligated hypertensive rat. Kind of assay: Renal-ligated Hypertensive Rat Assay. Conditions: renal-ligated rats. In kind it is in vivo, Sprague Dawley rats. The procedure:
Renal-ligated Hypertensive Rat Assay
Male Sprague Dawley rats aged 11 to 15 weeks old were used in this test. […] Test compounds were administered intra-arterially at a dose of 10 mg per kg of body weight, and blood pressure changes were monitored directly at 5, 10, and 15 minutes after injection.

Structures can show the parent of a compound that is named as a salt. Non-standard residues stand in square brackets, D forms with d. Residues, ends and D or L forms follow the SMILES beside them. No end group written: not given here. *: point of attachment. dTyr(3-tBu) = CC(C)(C)c1cc(C[C@@H](N)C(=O)O)ccc1O; Tyr(3-tBu) = CC(C)(C)c1cc(C[C@H](N)C(=O)O)ccc1O; dMet(O2) = CS(=O)(=O)CC[C@@H](N)C(=O)O; Sta = CC(C)C[C@H](N)[C@@H](O)CC(=O)O; Isovaleryl = CC(C)CC(=O)*; Ahx = NCCCCCC(=O)O

In the case of “2,4-dimethyl-3-hydroxyphenylalanyl-D-methionylglycyl-N-(6-methoxy-6-oxohexyl)-L-phenylalaninamide monohydrochloride hemihydrate [Example 77]”, the “% Inhibition” value at human renin was 73%.

`COC(=O)CCCCCNC(=O)[C@H](Cc1ccccc1)NC(=O)CNC(=O)[C@@H](CCSC)NC(=O)[C@@H](N)Cc1ccc(OC(=O)OCC(C)C)c(C(C)(C)C)c1.Cl` (racemic) [Example 69, O-(2-methylpropoxycarbonyl)-3-t-butyl-tyrosyl-D-methionylglycyl-N-(6-methoxy-6-oxohexyl)-L-phenylalaninamide monohydrochloride]: the “% Inhibition” value on human renin worked out at 43%.

With `COC(=O)CCCCCNC(=O)[C@H](Cc1ccccc1)NC(=O)CNC(=O)[C@@H](CCS(C)(=O)=O)NC(=O)[C@@H](N)Cc1ccc(O)c(C(C)(C)C)c1` [Example 73, 3-t-butyl-L-tyrosyl-[4-(methylsulfonyl)-D-2-aminobutanoyl]glycyl-N-(6-methoxy-6-oxohexyl)-L-phenylalaninamide monohydrochloride hemihydrate] (H-[Tyr(3-tBu)][dMet(O2)]GF[Ahx]-OMe), the “% Inhibition” value on human renin is recorded as 21%.

Regarding `COC(=O)CCCCCNC(=O)[C@H](Cc1ccccc1)NC(=O)CNC(=O)[C@@H](CCS(C)(=O)=O)NC(=O)[C@H](N)Cc1ccc(O)c(C(C)(C)C)c1` [Example 74, 3-t-butyl-D-tyrosyl-[4-(methylsulfonyl)-D-2-aminobutanoyl]glycyl-N-(6-methoxy-6-oxohexyl)-L-phenylalaninamide monohydrochloride hemihydrate] (H-[dTyr(3-tBu)][dMet(O2)]GF[Ahx]-OMe), the “% Inhibition” value at human renin was 28%.

With `CC(C)CC(=O)N[C@H](C(=O)N[C@H](C(=O)N[C@@H](CC(C)C)[C@@H](O)CC(=O)N[C@@H](C)C(=O)N[C@@H](CC(C)C)[C@@H](O)CC(=O)O)C(C)C)C(C)C` [Pepstatin] (Isovaleryl-VV[Sta]A[Sta]-OH), in assay [1] (same test conditions), the plasma renin activity result is on record as “significantly reduced”. Further, the “mean arterial blood pressure” value in assay [1] (test compounds given intra-arterially, pressure read at 5, 10 and 15 minutes after injection) is given as “significantly reduced”.

With “O-(2-methylpropoxycarbonyl)-2,3,6-trimethyltyrosyl-[4-(methylsulfinyl)-D-2- aminobutanoyl]glycyl-N-(6-methoxy-6-oxohexyl)-L-phenylalaninamide monohydrochloride sesquihydrate [Example 58]”, the “% Inhibition” value at human renin is on record as 26%.

In the case of “O-(2-methylpropoxycarbonyl)-2-methyltyrosyl-D-methionylglycyl-N-(6-methoxy- 6-oxohexyl)-L-phenylalaninamide monohydrochloride hemihydrate [Example 63]”, the “% Inhibition” value at human renin came to 23%.

Consider “O-(2-methylpropoxycarbonyl)-2-methyltyrosyl-[4-(methylsulfinyl)-D-2-aminobutanoyl]-glycyl-N-(6-methoxy-6-oxohexyl)-L-phenylalaninamide monohydrochloride hemihydrate [Example 64]”, for which the “% Inhibition” value at human renin came to 22%.

“O-(2-methylpropoxycarbonyl)-3-t-butyltyrosyl-[4-(methylsulfinyl)-D-2-aminobutanoyl]glycyl-N-(6-methoxy-6-oxohexyl)-L-phenylalaninamide monohydrochloride hemihydrate [Example 70]”: the “% Inhibition” value on human renin came out at 25%.

As for “PHPFHLFVY [Pro-[Phe^6]octapeptide, prolylhistidylprolylphenylalanylhistidylleucylphenylalanylvalyltyrosine, reference compound]”, the “activity in the human renin inhibition assay” value at human renin (stated in words) was “active”.
